This note sets out measurements from patent publication US10696691B2, “BACE1 inhibitors” (Hoffmann-La Roche Inc., priority 2015, dated 2020).

Molecules are shown by their SMILES.

The IC50 is the concentration that inhibits the measured activity by half.

One experiment deals with Aβ40. The experiment in a line: Lowering of Aβ40 in brain of wild-type mice. The experiment is classed as in vivo. As to conditions: Mus musculus, po; female C57Bl/6J mice, 30 mg/kg per os, 4 h; brain Aβ40 as percentage of the vehicle group; read-out: Aβ40 (wt mice, brain). The procedure: Lowering of Aβ40 in Brain of Wild-Type Mice:
Animals and Housing Conditions.
Animals were maintained in a 12/12 h light/dark cycle, with lights starting at 6 a.m., and experiments were conducted during the light phase, Animal housing and experimental procedures were in line with ethical and legal guidelines and were authorized by local veterinary authorities.
Female C57Bl/6J mice were treated with a dose of 30 mg/kg of the compounds, 3-4 animals per treatment group. The test compound was dissolved in 5% EtOH, 10% Solutol, and was applied per os at 10 mL/kg. After 4 h, the animals were sacrificed and brain and plasma were collected. The brain was cut into halves and immediately frozen on dry ice. Brain was used for measurement of Aβ40 and plasma was used for determination of compound exposure. […] Brain tissue was homogenized in 2% DEA buffer in a Roche MagnaLyser (20″, 4000 rpm) and subsequently centrifuged for 1 h at 100000 g. DEA was reduced to 0.2% in 50 mM NaCl and one-half of the DEA lysate was passed over an Oasis Solid phase extraction plate (Waters; cat. no. 186000679), which had been activated with MeOH and equilibrated in dH2O (1 mL each). After washes in 10% and 30% MeOH (1 mL each), the Aβ-peptides were eluted in 0.8 mL of 2% NH4OH in 90% MeOH. The eluate was dried over a N2 flow, and the dried sample was reconstituted in 30 μL of AlphaLISA assay buffer. Aβ40 was determined by an AlphaLISA assay (Perkin-Elmer). In a white 96-well, half area microplate (Perkin-Elmer cat. no. 6005561), 20 μL of the reconstituted sample were mixed with 5 μL of biotinylated BAP-24 (specific for C-terminus of Aβ40) (Brockhaus, M.; Onmberg, J.; Rohrig, S.; Loetscher, H.; Wittenburg, N.; Baumeister, R.; Jacobsen, H.; Haass, C. Caspasemediated cleavage is not required for the activity of presenilins in amyloidogenesis and NOTCH signaling. NeuroReport 1998, 9, 1481-1486.) stock=4.4 mg/mL, f.c.5.5 μg/mL), and 5 μL 252Q6 acceptor beads (252Q6 antibody, Invitrogen AMB0062) had been previously conjugated with AlphaLISA Acceptor beads (Perkin-Elmer cat. no. 6772002); final dilution 1:500). The mix was incubated for 1 h at RT in the dark. Then 20 μL of Streptavin-coated Donor Beads (Perkin-Elmer cat. no. 6760002, final dilution 1:125) were added and this final mix was incubated in the dark for another 30 min at RT before RFU was measured in an AlphaScreen Reader (Perkin-Elmer Envision 2104). The value obtained for A40 in the treated animals was related to the value in the vehicle group and is given in %. Alternatively a commercial ELISA was used for Aβ40 determination (Wako ELISA: (“Human/Rat 3 Amyloid (40) ELISA kit Wako II”; cat nr. 294-64701) following the manufacture's instruction. Also here the Aβ-lowering efficacy was calculated as percentage of the vehicle group.

The target in another experiment is T1, BACE1 (Homo sapiens, UniProt P56817).
T1 construct: endogenous in cells; host or cells: HEK293 APP cells
The experiment in a line: Cellular Aβ-lowering assay (Abeta 40 AlphaLISA, HEK293 APP cells). The experiment is classed as cell-based. As to conditions: 18-20 hrs incubation, Aβ 40 in culture supernatants, read-out: BACE1 cell act. Aβ40 IC50. The method, then: Cellular Aβ-Lowering Assay:
The Abeta 40 AiphaLISA Assay can be used. The HEK293 APP cells were seeded in 96 well Microtiter plates in cell culture medium (Iscove's, plus 10% (v/v) fetal bovine serum, penicillin/streptomycin) to about 80% confluency and the compounds were added at a 3× concentration in ⅓ volume of culture medium (final DMSO concentration was kept at 1% v/v). After 18-20 hrs incubation at 37° C. and 5% CO2 in a humidified incubator, the culture supernatants were harvested for the determination of Aβ 40 concentrations using Perkin-Elmer Human Amyloid beta 1-40 (high specificity) Kit (Cat # AL275C).
In a Perkin-Elmer White Optiplate-384 (Cat #6007290), 2 ul culture supernatants were combined with 2 μl of a 10× AlphaLISA Anti-hABAcceptor beads+Biotinylated Antibody Anti-AD 1-40 Mix (50 μg/mL/5 nM). After 1 hour room temperature incubation, 16 μl of a 1.25× preparation of Streptavidin (SA) Donor beads (25 μg/mL) were added and incubated for 30 minutes in the Dark. Light Emission at 615 nm was then recorded using EnVision-Alpha Reader. Levels of Aβ 40 in the culture supernatants were calculated as percentage of maximum signal (cells treated with 1% DMSO without inhibitor). The IC50 values were calculated using the Excel XLfit software.

T1 sequence (P56817 46-501): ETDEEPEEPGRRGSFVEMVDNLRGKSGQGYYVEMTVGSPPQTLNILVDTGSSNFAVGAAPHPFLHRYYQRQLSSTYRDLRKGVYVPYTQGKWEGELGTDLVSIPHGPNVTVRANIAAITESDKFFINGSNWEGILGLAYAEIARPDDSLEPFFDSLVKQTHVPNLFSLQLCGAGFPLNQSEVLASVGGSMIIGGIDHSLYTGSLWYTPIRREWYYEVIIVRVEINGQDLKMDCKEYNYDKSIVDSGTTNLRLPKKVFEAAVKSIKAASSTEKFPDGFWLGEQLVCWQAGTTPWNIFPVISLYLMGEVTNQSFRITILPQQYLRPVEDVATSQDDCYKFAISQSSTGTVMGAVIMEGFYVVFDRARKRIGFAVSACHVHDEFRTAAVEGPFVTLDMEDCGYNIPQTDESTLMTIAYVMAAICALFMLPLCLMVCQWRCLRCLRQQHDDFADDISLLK

Consider `Cc1cc(C#N)cnc1C(=O)Nc1ccc(F)c([C@@]2(C)N=C(N)C(C)(C)[S@@]3(=O)=NCC[C@@H]23)c1` [Example 1AB, N-(3-((3aS,4R,8R)-6-amino-4,7,7-trimethyl-8-oxido-3,3a,4,7-tetrahydro-2H-isothiazolo[1,5-a][1,4]thiazin-4-yl)-4-fluorophenyl)-5-cyano-3-methylpicolinamide], for which the response vs control in vivo at 30 mg/kg with Aβ40 came to 14%. The IC50 at BACE1 stood at 0.09 nM.
`Cc1cc(C#N)cnc1C(=O)Nc1ccc(F)c([C@@]2(C)N=C(N)C(C)(C)[S@]3(=O)=NCC[C@H]23)c1` [Example 1BA, N-(3-((3aR,4R,8S)-6-amino-4,7,7-trimethyl-8-oxido-3,3a,4,7-tetrahydro-2H-isothiazolo[1,5-a][1,4]thiazin-4-yl)-4-fluorophenyl)-5-cyano-3-methylpicolinamide]: in the experiment on Aβ40, the response vs control in vivo at 30 mg/kg amounted to 73%. Moreover, the IC50 on BACE1 turned out to be 3.6 nM.
Turning to `CC1(C)C(N)=N[C@](C)(c2cc(NC(=O)c3ccc(OC(F)F)cn3)ccc2F)[C@@H]2CCN=[S@@]21=O` [Example 5AB, N-(3-((3aS,4R,8R)-6-amino-4,7,7-trimethyl-8-oxido-3,3a,4,7-tetrahydro-2H-isothiazolo[1,5-a][1,4]thiazin-4-yl)-4-fluorophenyl)-5-(difluoromethoxy)picolinamide], the IC50 on BACE1 is 0.6 nM.
On the same count and under the same terms, with `CC1(C)C(N)=N[C@](C)(c2cc(NC(=O)c3nn(C(F)F)cc3Cl)ccc2F)[C@@H]2CCN=[S@@]21=O` [Example 6AB, N-(3-((3aS,4R,8R)-6-amino-4,7,7-trimethyl-8-oxido-3,3a,4,7-tetrahydro-2H-isothiazolo[1,5-a][1,4]thiazin-4-yl)-4-fluorophenyl)-4-chloro-1-(difluoromethyl)-1H-pyrazole-3-carboxamide] the figure was 1.1 nM; with `CC1(C)C(N)=N[C@](C)(c2cc(NC(=O)c3ncc(C(F)(F)F)cc3Cl)ccc2F)[C@@H]2CCN=[S@@]21=O` [Example 8AB, N-(3-((3aS,4R,8R)-6-amino-4,7,7-trimethyl-8-oxido-3,3a,4,7-tetrahydro-2H-isothiazolo[1,5-a][1,4]thiazin-4-yl)-4-fluorophenyl)-3-chloro-5-(trifluoromethyl)picolinamide], 0.3 nM; with `Cc1cc(C#N)ccc1C(=O)Nc1ccc(F)c([C@@]2(C)N=C(N)C(C)(C)[S@@]3(=O)=NCC[C@@H]23)c1` [Example 9AB, N-(3-((3aS,4R,8R)-6-amino-4,7,7-trimethyl-8-oxido-3,3a,4,7-tetrahydro-2H-isothiazolo[1,5-a][1,4]thiazin-4-yl)-4-fluorophenyl)-4-cyano-2-methylbenzamide], 12.3 nM.
With `CC1(C)C(N)=N[C@](C)(c2cc(NC(=O)c3ccc(OCC(F)F)cn3)ccc2F)[C@@H]2CCN=[S@@]21=O` [Example 10AB, N-(3-((3aS,4R,8R)-6-amino-4,7,7-trimethyl-8-oxido-3,3a,4,7-tetrahydro-2H-isothiazolo[1,5-a][1,4]thiazin-4-yl)-4-fluorophenyl)-5-(2,2-difluoroethoxy)picolinamide], the IC50 on BACE1 worked out at 2.2 nM.
For `Cc1cc(OC(F)F)cnc1C(=O)Nc1ccc(F)c([C@@]2(C)N=C(N)C(C)(C)[S@@]3(=O)=NCC[C@@H]23)c1` [Example 11AB, N-(3-((3aS,4R,8R)-6-amino-4,7,7-trimethyl-8-oxido-3,3a,4,7-tetrahydro-2H-isothiazolo[1,5-a][1,4]thiazin-4-yl)-4-fluorophenyl)-5-(difluoromethoxy)-3-methylpicolinamide], the IC50 at BACE1 worked out at 0.2 nM.
Still for that read-out and setting: the figure for `CC1(C)C(N)=N[C@](C)(c2cc(NC(=O)c3ccc(OCC(F)(F)C(F)F)cn3)ccc2F)[C@@H]2CCN=[S@@]21=O` [Example 12AB, N-(3-((3aS,4R,8R)-6-amino-4,7,7-trimethyl-8-oxido-3,3a,4,7-tetrahydro-2H-isothiazolo[1,5-a][1,4]thiazin-4-yl)-4-fluorophenyl)-5-(2,2,3,3-tetrafluoropropoxy)picolinamide] is 1.4 nM.
Still for that read-out and setting: the figure for `CC1(C)C(N)=N[C@](C)(c2cc(NC(=O)c3ccc(C#N)cn3)ccc2F)[C@@H]2CCN=[S@@]21=O` [Example 16AB, N-(3-((3aS,4R,8R)-6-amino-4,7,7-trimethyl-8-oxido-3,3a,4,7-tetrahydro-2H-isothiazolo[1,5-a][1,4]thiazin-4-yl)-4-fluorophenyl)-5-cyanopicolinamide] is 0.2 nM; for `CC1(C)C(N)=N[C@](C)(c2cc(NC(=O)c3ccc(Cl)cn3)ccc2F)[C@@H]2CCN=[S@@]21=O` [Example 18AB, N-(3-((3aS,4R,8R)-6-amino-4,7,7-trimethyl-8-oxido-3,3a,4,7-tetrahydro-2H-isothiazolo[1,5-a][1,4]thiazin-4-yl)-4-fluorophenyl)-5-chloropicolinamide] it is 0.2 nM; for `CC1(C)C(N)=N[C@](C)(c2cc(NC(=O)c3ncc(F)cc3F)ccc2F)[C@@H]2CCN=[S@@]21=O` [Example 19AB, N-(3-((3aS,4R,8R)-6-amino-4,7,7-trimethyl-8-oxido-3,3a,4,7-tetrahydro-2H-isothiazolo[1,5-a][1,4]thiazin-4-yl)-4-fluorophenyl)-3,5-difluoropicolinamide] it is 1.3 nM.
Still for that read-out and setting: with `Cc1ccc(C(=O)Nc2ccc(F)c([C@@]3(C)N=C(N)C(C)(C)[S@@]4(=O)=NCC[C@@H]34)c2)nc1` [Example 20AB, N-(3-((3aS,4R,8R)-6-amino-4,7,7-trimethyl-8-oxido-3,3a,4,7-tetrahydro-2H-isothiazolo[1,5-a][1,4]thiazin-4-yl)-4-fluorophenyl)-5-methylpicolinamide] the figure was 0.4 nM; with `Cc1ncc(C(=O)Nc2ccc(F)c([C@@]3(C)N=C(N)C(C)(C)[S@@]4(=O)=NCC[C@@H]34)c2)cn1` [Example 21AB, N-(3-((3aS,4R,8R)-6-amino-4,7,7-trimethyl-8-oxido-3,3a,4,7-tetrahydro-2H-isothiazolo[1,5-a][1,4]thiazin-4-yl)-4-fluorophenyl)-2-methylpyrimidine-5-carboxamide], 914 nM.
Regarding `Cc1cnc(C(=O)Nc2ccc(F)c([C@@]3(C)N=C(N)C(C)(C)[S@@]4(=O)=NCC[C@@H]34)c2)c(C)c1` [Example 23AB, N-(3-((3aS,4R,8R)-6-amino-4,7,7-trimethyl-8-oxido-3,3a,4,7-tetrahydro-2H-isothiazolo[1,5-a][1,4]thiazin-4-yl)-4-fluorophenyl)-3,5-dimethylpicolinamide], the IC50 at BACE1 was 0.2 nM.
On the same count and under the same terms, the figure for `COc1ccc(C(=O)Nc2ccc(F)c([C@@]3(C)N=C(N)C(C)(C)[S@@]4(=O)=NCC[C@@H]34)c2)nc1` [Example 24AB, N-(3-((3aS,4R,8R)-6-amino-4,7,7-trimethyl-8-oxido-3,3a,4,7-tetrahydro-2H-isothiazolo[1,5-a][1,4]thiazin-4-yl)-4-fluorophenyl)-5-methoxypicolinamide] is 0.7 nM.
